Here are results for nine compounds from patent publication US6060043A, “Deodorant composition containing D-amino acid” (The Gillette Company, priority 1998, dated 2000).

The structures appear in SMILES notation. In brackets after ≈: the same amount, converted by molar mass.

Series [1] relates to Staphylococcus haemolyticus. Nature of the series: Minimum inhibitory concentration (MIC) in axillary bacteria, Staphylococcus strain. Particulars: overnight at 35° C., lowest concentration without turbidity, read-out: MIC. Type of series: cell-based. Here is the method:
(§1) In vitro experiments were conducted in order to determine the ability of several bacterial cell wall synthesis inhibitors to inhibit the growth of axillary bacteria. The minimum inhibitory concentrations (MIC) of β-chloro-D-alanine (BCA), and D-cycloserine were determined in Staphylococcus (Staphylococcus haemolyticus) and Coryneform strains of axillary bacteria as follows: Frozen stock cultures were thawed out and 50 μl of Staphylococcus haemolyticus or 100 μl of Coryneform bacteria were inoculated into 5.0 ml of nutrient media. Bacteria were incubated at 35° C. overnight to produce cultures in log phase growth. A series of tubes was set up into which serial dilutions of BCA or triclosan in nutrient media were added in the range of 0.1 to 0.0001 wt/v % (where 1 g/100 ml=1 wt/v %). The tubes were inoculated with 50 μl of log phase Staphylococcus haemolyticus or Coryneform cultures and incubated at 35° C. overnight. […] The minimum bactericidal concentration (MBC) was determined by adding 50 μl from each clear solution of the MIC experiment into 5.0 ml of fresh nutrient media and incubating overnight at 37° C. […] The MIC of BCA was thus determined to be 0.1 wt/v % and 0.001 wt/v % in Staphylococcus haemolyticus and Coryneforms, respectively. The MIC of D-cycloserine was thus determined to be 0.01 wt/v % and 0.005 wt/v % in Staphylococcus haemolyticus and Coryneforms, respectively. By comparison, the MIC of the common antibacterial deodorant compound triclosan is 0.01 wt/v % and 0.1 wt/v % in Staphylococcus haemolyticus and Coryneforms, respectively.

For a further series, the system named is Coryneform bacteria. Nature of the series: Minimum inhibitory concentration (MIC) in axillary bacteria, Coryneform strain. The format is cell-based, Coryneform strains of axillary bacteria. Particulars: Coryneforms; overnight at 35° C.; lowest concentration without turbidity; read-out: MIC. As for the experimental part:
as §1

The subject of series [2] is axillary malodor. Nature of the series: Example 5: axillary malodor evaluation by odor judges, 1.0% D-cycloserine vs 0.3% triclosan. Type of series: in vivo, human. Also noted: key to Post-Application 24 Hour Drop from Control: drop in odor score vs control; scale 0 (no odor) to 10 (very intense). Particulars: for Post-Application 24 Hour Drop from Control / Judges' Malodor Evaluation (score): 1.0% D-cycloserine, 0.3% triclosan; for Judges' Malodor Evaluation (score): scale 0 to 10. As for the experimental part: (§2) BCA was dissolved in a mixture of 60% propylene glycol and 40% water at a final concentration of 1.0%. The pH of the solution was adjusted to about 6.25 with 10 N NaOH. Thirty-nine female panelists applied 0.5 ml of this test solution to either the right or left axilla and 0.5 ml of a comparative solution of 60% propylene glycol and 40% water to the other. The side of application of the test or comparative solutions was assigned in a random fashion. Twenty-four hours after application, each side of the panelists' axilla was judged for odor by a panel of trained odor judges on a scale of 0 (no odor) to 10 (very intense, disagreeable odor). This procedure was performed on four consecutive days. […] Analysis of the clinical results is summarized below:
A test product containing 1.0% D-cycloserine in 60% propylene glycol/40% water was compared to a product containing 0.3% triclosan in 60% propylene glycol/40% water by application to 60 test subjects according to the procedure of Example 4. […] All differences were highly significant.

Series [3] can be described thus: Test of antimicrobial materials for deodorant activity. Particulars: compared with currently available materials. An excerpt: Cosmetic Chemists, 19, 611-626 (1968) and Cowen, "Relative Merits of `In Use` and Laboratory Methods for the Evaluation of Antimicrobial Products, "J. Soc. Cosmetic Chemists, 25, 307-323 (1974).
Another series has as its system Staphylococcus cells. Particulars: as disclosed in U.S. Pat. No. 5,487,886; cited from earlier work.
Series [4] concerns axillary malodor. Nature of the series: Example 6: axillary malodor evaluation by odor judges, 1.0% β-chloro-D-alanine vs 1.0% β-chloro-L-alanine. Type of series: in vivo, human. Also noted: key to 24 Hour Drop from Control / A-B (drop), D-BCA minus L-BCA: drop in odor score on 0 (no odor) to 10 (very intense) scale. Particulars: 1.0% in 60% propylene glycol/40% water. Here is the method:
as §2
A test product containing 1.0% β-chloro-D-alanine (BCA)[…] in 60% propylene glycol/40% water was compared to a comparative product containing 1.0% β-chloro-L-alanine in 60% propylene glycol/40% water by application to 50 female test subjects according to the procedure of Example 4.

Series [5] has as its target T1, serine-palmitoyl transferase (Mus musculus, UniProt P97363).
T1 construct: host or cells: skin, in vivo after topical application
T1 sequence (P97363 1-560): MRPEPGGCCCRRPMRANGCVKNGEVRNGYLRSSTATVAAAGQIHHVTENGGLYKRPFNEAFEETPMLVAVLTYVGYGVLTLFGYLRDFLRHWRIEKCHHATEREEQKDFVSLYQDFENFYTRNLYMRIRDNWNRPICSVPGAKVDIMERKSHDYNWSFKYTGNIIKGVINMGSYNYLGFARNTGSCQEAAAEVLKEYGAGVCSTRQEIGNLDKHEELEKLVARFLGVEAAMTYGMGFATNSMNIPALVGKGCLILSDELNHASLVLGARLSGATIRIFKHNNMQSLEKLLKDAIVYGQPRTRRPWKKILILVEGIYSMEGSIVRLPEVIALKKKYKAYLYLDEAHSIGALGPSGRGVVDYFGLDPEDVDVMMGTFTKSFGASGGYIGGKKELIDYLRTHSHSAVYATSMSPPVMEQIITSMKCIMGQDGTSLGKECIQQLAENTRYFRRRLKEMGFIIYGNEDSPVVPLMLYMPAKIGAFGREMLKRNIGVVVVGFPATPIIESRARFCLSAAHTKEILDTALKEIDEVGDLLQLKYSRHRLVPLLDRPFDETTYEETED
T1 sequence (O35704 1-473 partner): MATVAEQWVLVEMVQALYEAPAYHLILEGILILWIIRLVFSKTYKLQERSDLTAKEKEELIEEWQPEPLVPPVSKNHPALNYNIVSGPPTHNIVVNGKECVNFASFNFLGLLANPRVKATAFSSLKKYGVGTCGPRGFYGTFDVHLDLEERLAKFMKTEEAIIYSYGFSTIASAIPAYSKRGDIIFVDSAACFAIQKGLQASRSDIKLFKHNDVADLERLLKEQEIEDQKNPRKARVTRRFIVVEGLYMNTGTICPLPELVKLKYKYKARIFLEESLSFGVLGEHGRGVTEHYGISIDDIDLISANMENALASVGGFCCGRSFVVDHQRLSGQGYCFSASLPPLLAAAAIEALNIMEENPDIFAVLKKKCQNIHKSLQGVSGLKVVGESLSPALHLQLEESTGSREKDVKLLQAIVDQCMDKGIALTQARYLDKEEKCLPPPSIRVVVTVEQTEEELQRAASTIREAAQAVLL
Particulars: topical application; Holleran et al. 1991; cited from earlier work.

The conditions of series [6]: topical application; Holleran et al. 1991; cited from earlier work.
The next series relates to β-lyase. Nature of the series: Sniff vial test: malodor formation from precursors by whole Staphylococcus haemolyticus cells (beta-lyase inhibition). The format is cell-based. Particulars: whole Staphylococcus haemolyticus cells, sniff vial assay. As for the experimental part:
BCA was tested for its ability to prevent Staphylococcus haemolyticus from metabolizing sweat to form malodor. Log-phase cultures of Staphylococcus haemolyticus were incubated with various concentrations of BCA (31-0.625 mM) in phosphate buffer (pH 6.8) for 30 minutes at 35° C. The cell/BCA mixture was then added to a "sniff vial" containing malodor precursors and incubated at 35° C. for an additional 30 minutes. Malodor compounds were then extracted from the mixture with chloroform and malodor was judged by spotting 10 μl of chloroform extracts onto bibulous paper and smelling. […] In contrast, the β-lyase inhibitor aminooxyacetic acid (AOA) consistently prevents malodor in the above assay at concentrations of 5.0 mM.

Turning to `Oc1cc(Cl)ccc1Oc1ccc(Cl)cc1Cl` [triclosan, reference compound], the MIC – broadly, the smallest concentration in the dilution series that meets the test's criterion for growth inhibition – in series [1] worked out at 100 µg/mL (≈ 345 µM); with Coryneform bacteria, 1000 µg/mL (≈ 3450 µM). The “Post-Application 24 Hour Drop from Control” value in the series on axillary malodor [2] (composite) is given as 0.65; in the series with axillary malodor [2] (measurement day 1), 0.67; in the series on axillary malodor [2] (measurement day 2) it was 0.46; with axillary malodor [2] (measurement day 3), 0.74; in the series with axillary malodor [2] (measurement day 4), 0.72. Further, the “Judges' Malodor Evaluation (score)” value in the series on axillary malodor [2] (composite) is listed as 4.07; in the series on axillary malodor [2] (measurement day 1) it was 4; in the series on axillary malodor [2] (measurement day 2) it was 4.26; in the series on axillary malodor [2] (measurement day 3), 3.97; in the series on axillary malodor [2] (measurement day 4) it was 4.

Take `CCCCCCCCCCCCCCCCCC[N+](C)(C)CCC[Si](OC)(OC)OC.[Cl-]` [3-(trimethoxysilyl)propyloctadecyldimethyl ammonium chloride]: in series [3], the Deodorant activity result is recorded as “no improvement over currently available materials was observed”.

With `NC1CONC1=O` [L-cycloserine], in the series on Staphylococcus cells, the “Effect on the growth of Staphylococcus cells in culture” value is on record as “no inhibitory effect”.

For `OO` [hydrogen peroxide], the Deodorant activity result in series [3] is given as “no improvement over currently available materials was observed”.

As to `N[C@@H](CCl)C(=O)O` [β-chloro-L-alanine, reference compound], the “24 Hour Drop from Control” value was determined as 1.083 with axillary malodor [4] (composite); 0.913 in the series on axillary malodor [4] (post-application measurement 1); 1.040 in the series on axillary malodor [4] (post-application measurement 2); 1.013 with axillary malodor [4] (post-application measurement 3); 1.333 in the series on axillary malodor [4] (post-application measurement 4). For the same compound, the “Inhibition of serine-palmitoyl transferase in the skin” value in [5] is given as “irreversibly inhibits”. In addition, in series [6], the “Recovery of skin barrier function in vivo” value was “alters recovery of skin barrier function”.

Turning to `CC(=O)OCC(COC(C)=O)OC(C)=O` [triacetin], the Deodorant activity entry in series [3] is given as “no improvement over currently available materials was observed”.

In the case of `NC1CONC1=O` [D-cycloserine], the MIC in series [1] came to 100 µg/mL (≈ 979 µM); in the series on Coryneform bacteria it was 50 µg/mL (≈ 490 µM). Moreover, in the series with axillary malodor [2] (all measurements and the composite, odor judges), the “Inhibition of axillary malodor, 1.0% D-cycloserine product versus 0.3% triclosan” value is reported as “superior to 0.3% triclosan”. In addition, the “Post-Application 24 Hour Drop from Control” value with axillary malodor [2] (composite) was 1.13; in the series with axillary malodor [2] (measurement day 1), 1.1; in the series on axillary malodor [2] (measurement day 2), 0.99; in the series with axillary malodor [2] (measurement day 3), 1.22; with axillary malodor [2] (measurement day 4), 1.22. Also, the “Judges' Malodor Evaluation (score)” value is recorded as 3.61 in the series on axillary malodor [2] (composite); 3.64 in the series on axillary malodor [2] (measurement day 1); 3.75 in the series on axillary malodor [2] (measurement day 2); 3.53 with axillary malodor [2] (measurement day 3); 3.52 with axillary malodor [2] (measurement day 4).

`NOCC(=O)O` [AOA, aminooxyacetic acid, reference compound]: the “Concentration that consistently prevents malodor” value with β-lyase is recorded as 5.0 mM.

With `[H]/N=C(\N/C(=N/[H])NCCCCCCNC(=N)NC(=N)Nc1ccc(Cl)cc1)Nc1ccc(Cl)cc1` [chlorhexidine], in [3], the Deodorant activity result is given as “no improvement over currently available materials was observed”.
